Source: patent US20220023386A1, “METHOD FOR THE TREATMENT OR PREVENTION OF OSTEOARTHRITIS” (Chondropeptix B.V., priority 2016, published 2022)

Key:
[1] = system: OA articular chondrocytes; test: Expression of OA chondrocyte phenotype marker genes by RT-qPCR after peptide exposure; assay type: cell-based, human; set-up: key: [—] denotes the absence of a significant effect or a significantly decreased expression of chondrogenic marker BAPX1/NKX3.2 or an increased expression of OA chondrocyte phenotypic markers ALP, MMP13, ADAMTS5, COX2, COL10A and RUNX2 in OA articular chondrocytes, in comparison to untreated OA articular chondrocyts; details: Table 1, 20-mer peptides with native cysteines; vs untreated OA articular chondrocytes
[2] = system: OA articular chondrocytes; test: as above; assay type: cell-based, human; set-up: key: [—] denotes the absence of a significant effect or a significantly decreased expression of chondrogenic marker BAPX1/NKX3.2 or an increased expression of OA chondrocyte phenotypic markers ALP, MMP13, ADAMTS5, COX2, COL10A and RUNX2 in OA articular chondrocytes, in comparison to untreated OA articular chondrocyts; details: Table 1, 20-mer peptides with native cysteines; vs untreated OA articular chondrocytes; remark: listed apart in the source
Procedure: The action of 20-mer peptides (10 nM) of SEQ ID NO: 2-15 (peptides with 1 amino acids intervals (19 amino acid overlap)) and SEQ ID NO:49 on the expression of the indicated genes was determined on a validated pool of passage 2 OA human articular chondrocytes (n=18) and compared to full-length recombinant BMP-7 (1 nM). Samples were harvested after 24 hours and analyzed for indicated genes by RT-qPCR (corrected for 28S rRNA expression and relative to control conditions (no peptide exposure)). In the graphs, numbers on the x-axis represent individual peptides according to their SEQ ID NO:, error bars represent mean±SEM, statistical differences were calculated (one-way ANOVA with bonferroni correction) to control condition. *=p<0.05 lower than control condition for COL10A1, ALP, RUNX2, COX-2, MMP13 and ADAMTS5 and higher than control condition for BAPX1/NKX3.2. Random peptide is a peptide according to SEQ ID NO: 49 with amino acid sequence […].

Cartilage explants = test: Safranin-O staining of glycosaminoglycans in cartilage explants; assay type: cell-based, human; details: 14 days; BMP-7 1 nM, SEQ ID NO: 8 10 nM; 2 patients
Procedure: Cartilage explants obtained from 2 patients were cultured for 14 days in the presence of BMP-7 (1 nM) or BMP-7 mimicking peptide […] (SEQ ID NO: 8) at 10 nM. Glycosaminoglycans (GAGs), an important component of the extracellular matrix (ECM), were stained with Safranin-O (in red) and other tissues are counterstained with Fast green (in green/blue).

[3] = system: OA articular chondrocytes; test: Expression of OA chondrocyte phenotype marker genes by RT-qPCR after peptide exposure; assay type: cell-based, human; details: independent of the tested concentration (1000, 100, 10 and 1 nM were tested)
[4] = system: Synovial tissue, Hoffa's fat pad tissue and meniscus tissue samples from OA patients; test: PGE2 levels via ELISA in synovial, Hoffa's fat pad and meniscus tissue samples; assay type: cell-based, human; details: 24 h; BMP-7 1 nM, peptides 10 nM
Procedure: Synovial tissue samples from OA patients (n=6) were treated with BMP-7 (1 nM), with peptide […] (SEQ ID NO: 8) at 10 nM or a scrambled irrelevant control peptide (10 nM) for 24 h. PGE2 levels were determined via an ELISA.
Hoffa's fat pad tissue samples from OA patients (n=6) were treated with BMP-7 (1 nM) with peptide […] (SEQ ID NO: 8) at 10 nM or a scrambled irrelevant control peptide (10 nM) for 24 h. PGE2 levels were determined via an ELISA.
Meniscus tissue samples from OA patients (n=6) were treated with BMP-7 (1 nM) with peptide […] (SEQ ID NO: 8) at 10 nM or a scrambled irrelevant control peptide (10 nM) for 24 h. PGE2 levels were determined via an ELISA.

[5] = system: Cartilage explants from OA patient's knee cartilage; test: PGE2 levels via ELISA in cartilage explants; assay type: cell-based, human; details: 14 days; BMP-7 1 nM, peptides 10 nM
Procedure: Cartilage explants of 3 mm^2 were taken from OA patient's knee cartilage (n=6) and treated with BMP-7 (1 nM), with peptide […] (SEQ ID NO: 8) at 10 nM or a scrambled irrelevant control peptide (10 nM) for 14 days. Prostaglandin E2 (PGE2) levels, a pro-hypertrophic factor, were determined via an ELISA.

[6] = system: Isolated chondrocytes from OA patients; test: Treatment of isolated chondrocytes from OA patients, gene expression via qRT-PCR; assay type: cell-based, human; details: 1 nM, 24 h, n=6
Procedure: Isolated chondrocytes from OA patients (n=6) were treated with BMP-7 (1 nM) or the 12-mer peptide according to SEQ ID NO: 16 (1 nM) for 24 h. Pro-chondrogenic (FIG. 9A) and hypertrophic (FIGS. 9B, 9C and 9D) gene expression was determined via qRT-PCR and normalized for 28S rRNA levels.

[7] = system: cartilage explants from OA patient's knee articular cartilage; test: Treatment of cartilage explants, hypertrophic gene expression via qRT-PCR; assay type: cell-based, human; details: BMP-7 1 nM, SEQ ID NO: 16 10 nM, 24 h
Procedure: 4 mm2 cartilage explants were taken from non-lesion areas of OA patient's knee articular cartilage (n=5) and randomly assigned to different experimental treatment conditions (4 explants per treatment group). After a 24 h equilibration period the explants were treated with BMP-7 (1 nM) or the 12-mer peptide according to SEQ ID NO: 16 (10 nM) for 24 h. Hypertrophic gene expression was determined via qRT-PCR and normalized for 28S rRNA levels. After treatment with BMP-7 or the 12 mer we observed a downregulation of pro-hypertrophic genes, such as Col10a1 (FIG. 10A) and MMP13 (FIG. 10B).

OA patients = details: intra-articular injection, phase-1; cited from earlier work
[8] = system: Osteoarthritic chondrocytes; test: BMP-7 rescue of OA-associated chondrocyte phenotype (FIG. 1); assay type: cell-based
Procedure: Osteoarthritic chondrocytes display a typical phenotype that is characterized by decreased expression of SOX9, COL2A1, ACAN and BAPX1/NKX3.2 and an increased expression of RUNX2, COL10A1, ALP, MMP13, ADAMTSS, COX-2 and IL-6 mRNAs (see left panel).
Functional ALP enzyme activity in cell lysates and PGE2 secretion in the culture medium was also normalized upon BMP-7 treatment of OA chondrocytes (right panel).
Expression of indicated mRNAs was determined by RT-qPCR, relatively to control conditions (normalized for 28S rRNA expression). In graphs, error bars represent mean±SEM, statistical differences were calculated as compared to healthy condition. *=p<0.05.

OA = details: intra-articular administration, rats; cited from earlier work
[9] = BMP-7 treatment of OA chondrocytes

43 (LNAISVLYFDDSSNVILKKY; homo sapiens) [compound 43]
ALP expression [1]: —
BAPX1/NKX3.2 expression [1]: —
COL10A expression [1]: —
COX-2 expression [1]: —
MMP13 expression [1]: —
RUNX2 expression [1]: —
ADAMTS5 expression [2]: —

44 (SSNVILKKYRNMVVRACGCH; homo sapiens) [compound 44]
ALP expression [1]: —
BAPX1/NKX3.2 expression [1]: —
COL10A expression [1]: —
COX-2 expression [1]: —
MMP13 expression [1]: —
RUNX2 expression [1]: —
ADAMTS5 expression [2]: —

GYAAYYSEGESAFPLNSYMN (homo sapiens) [SEQ ID NO: 8]
Safranin-O intensity (GAGs) compared to control (Cartilage explants): increased Safranin-O intensity
suppression of the OA chondrocyte phenotype [3]: efficiently suppressed
PGE2 levels in the surrounding tissues (synovial, Hoffa's fat pad, meniscus) [4]: reduce PGE2 levels
PGE2 levels in the cartilage [5]: reduce PGE2 levels

YSEGESAFPLNS (homo sapiens) [SEQ ID NO: 16]
COL10A1 gene expression (pro-hypertrophic) [6]: downregulation
COX-2 gene expression (pro-hypertrophic) [6]: downregulation
Col2a1 gene expression (pro-chondrogenic) [6]: upregulation
RUNX2 gene expression (pro-hypertrophic) [6]: downregulation
Col10a1 gene expression [7]: downregulation
MMP13 gene expression [7]: downregulation

B1: bone morphogenetic protein-7 (protein)
chain: STGSKQRSQNRSKTPKNQEALRMANVAENSSSDQRQACKKHELYVSFRDLGWQDWIIAPEGYAAYYCEGECAFPLNSYMNATNHAIVQTLVHFINPETVPKPCCAPTQLNAISVLYFDDSSNVILKKYRNMVVRACGCH
modifications: homo sapiens
notes: full-length recombinant human BMP-7, mature polypeptide of 139 amino acids
Safranin-O intensity (GAGs) compared to control (Cartilage explants): increased Safranin-O intensity
adverse events (OA patients): no serious adverse events
concentration at which OA chondrocyte-phenotype suppressive action is most pronounced [8]: around 1 nM
OA-associated chondrocyte phenotype (expression of SOX9, COL2A1, ACAN, BAPX1/NKX3.2, RUNX2, COL10A1, ALP, MMP13, ADAMTS5, COX-2, IL-6 mRNAs) ([8]; BMP-7 1 nM): able to rescue
effects on the chondrocyte phenotype at high concentration ([8]; BMP-7 concentrations higher than 1 nM (eg 10 nM or 100 nM)): opposite and negative effects
Functional ALP enzyme activity in cell lysates [8, 9]: normalized
PGE2 secretion in the culture medium [8, 9]: normalized
PGE2 levels in the surrounding tissues (synovial, Hoffa's fat pad, meniscus) [4]: reduce PGE2 levels
PGE2 levels in the cartilage [5]: reduce PGE2 levels
COL10A1 gene expression (pro-hypertrophic) [6]: downregulation
COX-2 gene expression (pro-hypertrophic) [6]: downregulation
Col2a1 gene expression (pro-chondrogenic) [6]: upregulation
RUNX2 gene expression (pro-hypertrophic) [6]: downregulation
OA development and progression (OA): protects against OA development and delays progression of OA
Col10a1 gene expression [7]: downregulation
MMP13 gene expression [7]: downregulation
